Broadly, the IC50 is the concentration at which inhibition is half-maximal.

Structures are written as SMILES.

Assay in all cases: fluorogenic AFC peptide substrate assay
Format in all cases: biochemical

The target in one experiment is T1, human Casp8 (Homo sapiens, UniProt Q14790).
T1 construct: recombinant caspase, commercial (BioVision)
The note with it: 10 µM Ac-IETD-AFC, pH 7.2, 37 °C, 10 mM DTT.

The next experiment deals with T2, human Casp1 (Homo sapiens, UniProt P29466).
T2 construct: recombinant caspase, commercial (BioVision)
T2 sequence (P29466 120-297): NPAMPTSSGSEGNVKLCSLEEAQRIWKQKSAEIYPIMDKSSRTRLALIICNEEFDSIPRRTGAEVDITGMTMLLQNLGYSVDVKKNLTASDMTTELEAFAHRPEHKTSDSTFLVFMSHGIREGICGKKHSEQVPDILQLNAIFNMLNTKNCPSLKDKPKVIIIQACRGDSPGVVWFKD
T2 sequence (P29466 317-404): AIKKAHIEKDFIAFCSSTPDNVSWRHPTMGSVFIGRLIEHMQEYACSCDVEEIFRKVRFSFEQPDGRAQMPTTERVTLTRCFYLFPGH

A further experiment concerns the target T3, human Casp10 (Homo sapiens, UniProt Q92851).
T3 construct: recombinant caspase, commercial (BioVision)
T3 sequence (Q92851 220-415): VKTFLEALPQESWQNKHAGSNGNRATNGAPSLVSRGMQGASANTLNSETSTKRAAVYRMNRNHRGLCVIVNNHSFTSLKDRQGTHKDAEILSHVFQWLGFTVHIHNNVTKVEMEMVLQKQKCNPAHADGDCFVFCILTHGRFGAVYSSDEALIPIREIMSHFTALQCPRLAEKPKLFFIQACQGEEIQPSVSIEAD
T3 sequence (Q92851 416-521): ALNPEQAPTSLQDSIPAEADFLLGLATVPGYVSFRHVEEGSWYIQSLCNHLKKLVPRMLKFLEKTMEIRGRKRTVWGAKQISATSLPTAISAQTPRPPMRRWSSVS
The note with it: 10 µM Ac-IETD-AFC, pH 7.2, 37 °C, 10 mM DTT.

In another experiment the target is T4, mouse recombinant Casp1 (Mus musculus, UniProt P29452).
T4 construct: recombinant caspase, commercial
T4 sequence (P29452 119-296): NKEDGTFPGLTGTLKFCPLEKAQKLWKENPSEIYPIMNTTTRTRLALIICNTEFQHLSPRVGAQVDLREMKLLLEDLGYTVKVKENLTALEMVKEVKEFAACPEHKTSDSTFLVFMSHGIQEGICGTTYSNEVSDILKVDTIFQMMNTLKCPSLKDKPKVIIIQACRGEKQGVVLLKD
T4 sequence (P29452 315-402): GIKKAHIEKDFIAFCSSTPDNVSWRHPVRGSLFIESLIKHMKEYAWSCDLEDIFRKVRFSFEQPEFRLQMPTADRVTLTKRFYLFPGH

The next experiment has as its target T5, human Casp9 (Homo sapiens, UniProt P55211).
T5 construct: recombinant caspase, commercial (BioVision)
T5 sequence (P55211 1-315): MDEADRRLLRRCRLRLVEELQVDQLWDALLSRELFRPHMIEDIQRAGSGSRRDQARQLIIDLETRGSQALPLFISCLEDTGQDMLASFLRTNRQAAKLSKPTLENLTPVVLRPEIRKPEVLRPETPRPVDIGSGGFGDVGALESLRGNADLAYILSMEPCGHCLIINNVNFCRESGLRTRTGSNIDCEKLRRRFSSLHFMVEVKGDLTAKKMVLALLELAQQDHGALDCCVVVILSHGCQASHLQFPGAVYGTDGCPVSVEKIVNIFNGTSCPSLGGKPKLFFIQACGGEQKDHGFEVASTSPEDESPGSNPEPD
T5 sequence (P55211 331-416): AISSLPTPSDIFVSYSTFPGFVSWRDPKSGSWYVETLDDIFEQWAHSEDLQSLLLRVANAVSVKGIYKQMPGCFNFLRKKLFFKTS
Conditions: 10 µM Ac-LEHD-AFC, pH 7.2, 37 °C, 10 mM DTT.

In a further experiment the target is T6, human Casp5 (Homo sapiens, UniProt P51878).
T6 construct: recombinant caspase, commercial (BioVision)
T6 sequence (P51878 137-327): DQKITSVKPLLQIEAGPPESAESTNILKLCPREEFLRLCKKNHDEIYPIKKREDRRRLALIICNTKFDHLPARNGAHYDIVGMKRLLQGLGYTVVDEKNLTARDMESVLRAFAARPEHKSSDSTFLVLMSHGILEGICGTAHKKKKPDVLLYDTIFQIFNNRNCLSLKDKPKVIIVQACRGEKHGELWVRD
T6 sequence (P51878 347-434): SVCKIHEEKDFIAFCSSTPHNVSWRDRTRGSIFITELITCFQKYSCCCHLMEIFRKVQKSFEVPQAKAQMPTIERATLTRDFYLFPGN
Conditions: 10 µM Ac-WEHD-AFC, pH 7.2, 37 °C, 10 mM DTT.

T1 sequence (Q14790 217-374): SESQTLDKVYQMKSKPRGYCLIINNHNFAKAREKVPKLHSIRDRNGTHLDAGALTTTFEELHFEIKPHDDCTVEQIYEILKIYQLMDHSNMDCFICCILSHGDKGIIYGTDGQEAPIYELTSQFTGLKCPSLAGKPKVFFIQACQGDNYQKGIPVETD
T1 sequence (Q14790 385-479): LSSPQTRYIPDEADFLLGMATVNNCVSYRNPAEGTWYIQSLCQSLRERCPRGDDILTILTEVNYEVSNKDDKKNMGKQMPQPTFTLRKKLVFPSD

Take `CC(C)(C)[C@H](NC(=O)c1ccc(N)c(Cl)c1)C(=O)N1CCC[C@H]1C(=O)N[C@H](C=O)CC(=O)O` [VRT-043198]: the IC50 entry against human Casp8 is “Casp5, Casp8, Casp9 and Casp10, which were inhibited in the nanomolar range in vitro”; against human Casp1, 9.91 nM; on human Casp10 it was “Casp5, Casp8, Casp9 and Casp10, which were inhibited in the nanomolar range in vitro”; on mouse recombinant Casp1, 18 nM; against human Casp9, “Casp5, Casp8, Casp9 and Casp10, which were inhibited in the nanomolar range in vitro”; at human Casp5, “Casp5, Casp8, Casp9 and Casp10, which were inhibited in the nanomolar range in vitro”.
In the case of `CCO[C@@H]1OC(=O)C[C@@H]1NC(=O)[C@@H]1CCCN1C(=O)[C@@H](NC(=O)c1ccc(N)c(Cl)c1)C(C)(C)C` [VX-765], the IC50 entry against human Casp8 was “Casp5, Casp8, Casp9 and Casp10, which were inhibited in the nanomolar range in vitro”; at human Casp10, “Casp5, Casp8, Casp9 and Casp10, which were inhibited in the nanomolar range in vitro”; against human Casp9, “Casp5, Casp8, Casp9 and Casp10, which were inhibited in the nanomolar range in vitro”; against human Casp5, “Casp5, Casp8, Casp9 and Casp10, which were inhibited in the nanomolar range in vitro”.

The values above are taken from paper PMC6156230, “Caspase-1 inhibition alleviates cognitive impairment and neuropathology in an Alzheimer’s disease mouse model” (Nature Communications, 2018).
